Laboratory results: PubChem BioAssay (NCI)
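Exposure lasted 48 hours, with cells grown in 96-well plates and compounds tested at five concentrations. At the GI50, growth is halved. TGI denotes the concentration required for complete inhibition of growth.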

Key:
Assay in all cases: inhibition of tumour cell growth, NCI panel, 48 h
CAKI-1 renal = tested on: CAKI-1 renal
U251 CNS = tested on: U251 CNS
HS 578T breast = tested on: HS 578T breast
HCT-116 colon = tested on: HCT-116 colon
HT29 colon = tested on: HT29 colon
SW-620 colon = tested on: SW-620 colon
SNB-75 CNS = tested on: SNB-75 CNS
RXF 393 renal = tested on: RXF 393 renal
NCI/ADR-RES ovarian = tested on: NCI/ADR-RES ovarian
UO-31 renal = tested on: UO-31 renal
K-562 leukemia = tested on: K-562 leukemia
A549 NSCLC = tested on: A549 NSCLC
HOP-92 NSCLC = tested on: HOP-92 NSCLC
CCRF-CEM leukemia = tested on: CCRF-CEM leukemia
UACC-257 melanoma = tested on: UACC-257 melanoma
SF-268 CNS = tested on: SF-268 CNS
SK-MEL-28 melanoma = tested on: SK-MEL-28 melanoma
BT-549 breast = tested on: BT-549 breast
EKVX NSCLC = tested on: EKVX NSCLC
MDA-MB-231 breast = tested on: MDA-MB-231 breast
SN12C renal = tested on: SN12C renal
OVCAR-4 ovarian = tested on: OVCAR-4 ovarian
SF-295 CNS = tested on: SF-295 CNS
SK-MEL-2 melanoma = tested on: SK-MEL-2 melanoma
HOP-62 NSCLC = tested on: HOP-62 NSCLC
A498 renal = tested on: A498 renal
SK-OV-3 ovarian = tested on: SK-OV-3 ovarian
OVCAR-3 ovarian = tested on: OVCAR-3 ovarian
SNB-19 CNS = tested on: SNB-19 CNS
COLO 205 colon = tested on: COLO 205 colon
HCT-15 colon = tested on: HCT-15 colon
ACHN renal = tested on: ACHN renal
NCI-H23 lung = tested on: NCI-H23 lung
OVCAR-8 ovarian = tested on: OVCAR-8 ovarian
NCI-H460 lung = tested on: NCI-H460 lung
NCI-H522 lung = tested on: NCI-H522 lung
HCC-2998 colon = tested on: HCC-2998 colon
UACC-62 melanoma = tested on: UACC-62 melanoma
SK-MEL-5 melanoma = tested on: SK-MEL-5 melanoma
PC-3 prostate = tested on: PC-3 prostate
DU-145 prostate = tested on: DU-145 prostate
OVCAR-5 ovarian = tested on: OVCAR-5 ovarian
MOLT-4 leukemia = tested on: MOLT-4 leukemia
IGROV1 ovarian = tested on: IGROV1 ovarian
MDA-MB-435 = tested on: MDA-MB-435
786-0 renal = tested on: 786-0 renal
SF-539 CNS = tested on: SF-539 CNS
T-47D breast = tested on: T-47D breast
RPMI-8226 leukemia = tested on: RPMI-8226 leukemia
MCF7 breast = tested on: MCF7 breast
M14 melanoma = tested on: M14 melanoma
LOX IMVI melanoma = tested on: LOX IMVI melanoma
MALME-3M melanoma = tested on: MALME-3M melanoma
TK-10 renal = tested on: TK-10 renal
KM12 colon = tested on: KM12 colon
SR leukemia = tested on: SR leukemia
HL-60(TB) leukemia = tested on: HL-60(TB) leukemia
NCI-H226 lung = tested on: NCI-H226 lung

CC1(C)CC[C@]2(C(=O)O)CC[C@]3(C)C(=CC[C@@H]4[C@@]5(C)C/C(=C/c6ccco6)C(=O)C(C)(C)[C@@H]5CC[C@]43C)[C@@H]2C1
GI50 (CAKI-1 renal): 2.72 µM | TGI (CAKI-1 renal): 15.7 µM | GI50 (U251 CNS): 3.45 µM | TGI (U251 CNS): 15 µM | GI50 (HS 578T breast): 5.19 µM | TGI (HS 578T breast): 54.1 µM | GI50 (HCT-116 colon): 2.9 µM | TGI (HCT-116 colon): 12 µM | GI50 (HT29 colon): 3.14 µM | TGI (HT29 colon): 14.1 µM | GI50 (SW-620 colon): 3.82 µM | TGI (SW-620 colon): 18.2 µM | GI50 (SNB-75 CNS): 3.04 µM | TGI (SNB-75 CNS): 54.6 µM | GI50 (RXF 393 renal): 3.3 µM | TGI (RXF 393 renal): 13.6 µM | GI50 (NCI/ADR-RES ovarian): 3.64 µM | TGI (NCI/ADR-RES ovarian): 44.5 µM | GI50 (UO-31 renal): 2.39 µM | TGI (UO-31 renal): 11.6 µM | GI50 (K-562 leukemia): 3.37 µM | TGI (K-562 leukemia): > 100 µM | GI50 (A549 NSCLC): 2.6 µM | TGI (A549 NSCLC): 23.5 µM | GI50 (HOP-92 NSCLC): 2.69 µM | TGI (HOP-92 NSCLC): 12.2 µM | GI50 (CCRF-CEM leukemia): 3.16 µM | TGI (CCRF-CEM leukemia): 31.6 µM | GI50 (UACC-257 melanoma): 6.24 µM | TGI (UACC-257 melanoma): 35.6 µM | GI50 (SF-268 CNS): 4.03 µM | TGI (SF-268 CNS): 23 µM | GI50 (SK-MEL-28 melanoma): 4.35 µM | TGI (SK-MEL-28 melanoma): 17.4 µM | GI50 (BT-549 breast): 4.01 µM | TGI (BT-549 breast): 23.4 µM | GI50 (EKVX NSCLC): 3.62 µM | TGI (EKVX NSCLC): 31.1 µM | GI50 (MDA-MB-231 breast): 3.49 µM | TGI (MDA-MB-231 breast): 19.5 µM | GI50 (SN12C renal): 3.37 µM | TGI (SN12C renal): 19.2 µM | GI50 (OVCAR-4 ovarian): 3.76 µM | TGI (OVCAR-4 ovarian): 41.1 µM | GI50 (SF-295 CNS): 3.22 µM | TGI (SF-295 CNS): 18.1 µM | GI50 (SK-MEL-2 melanoma): 2.99 µM | TGI (SK-MEL-2 melanoma): 11.4 µM | GI50 (HOP-62 NSCLC): 3.75 µM | TGI (HOP-62 NSCLC): 14.9 µM | GI50 (A498 renal): 6.14 µM | TGI (A498 renal): 45.6 µM | GI50 (SK-OV-3 ovarian): 4.22 µM | TGI (SK-OV-3 ovarian): 79.4 µM | GI50 (OVCAR-3 ovarian): 2.9 µM | TGI (OVCAR-3 ovarian): 9.61 µM | GI50 (SNB-19 CNS): 4.02 µM | TGI (SNB-19 CNS): > 100 µM | GI50 (COLO 205 colon): 2.02 µM | TGI (COLO 205 colon): 3.89 µM | GI50 (HCT-15 colon): 2.5 µM | TGI (HCT-15 colon): 13.4 µM | GI50 (ACHN renal): 2.89 µM | TGI (ACHN renal): 11.1 µM | GI50 (NCI-H23 lung): 3.13 µM | TGI (NCI-H23 lung): 17.6 µM | GI50 (OVCAR-8 ovarian): 4.29 µM | TGI (OVCAR-8 ovarian): > 100 µM | GI50 (NCI-H460 lung): 3.38 µM | TGI (NCI-H460 lung): 12.2 µM | GI50 (NCI-H522 lung): 3.22 µM | TGI (NCI-H522 lung): 24.3 µM | GI50 (HCC-2998 colon): 3.15 µM | TGI (HCC-2998 colon): 12.2 µM | GI50 (UACC-62 melanoma): 3.06 µM | TGI (UACC-62 melanoma): 12.8 µM | GI50 (SK-MEL-5 melanoma): 2.51 µM | TGI (SK-MEL-5 melanoma): 8.74 µM | GI50 (PC-3 prostate): 2.62 µM | TGI (PC-3 prostate): 14.9 µM | GI50 (DU-145 prostate): 4.02 µM | TGI (DU-145 prostate): 15.1 µM | GI50 (OVCAR-5 ovarian): 6.15 µM | TGI (OVCAR-5 ovarian): 32.5 µM | GI50 (MOLT-4 leukemia): 1.04 µM | TGI (MOLT-4 leukemia): > 100 µM | GI50 (IGROV1 ovarian): 4.48 µM | TGI (IGROV1 ovarian): 22.2 µM | GI50 (MDA-MB-435): 3.63 µM | TGI (MDA-MB-435): 14.1 µM | GI50 (786-0 renal): 4.12 µM | TGI (786-0 renal): 26.5 µM | GI50 (SF-539 CNS): 3.34 µM | TGI (SF-539 CNS): 11.6 µM | GI50 (T-47D breast): 3.23 µM | TGI (T-47D breast): 48.4 µM | GI50 (RPMI-8226 leukemia): 2.22 µM | TGI (RPMI-8226 leukemia): 10.7 µM | GI50 (MCF7 breast): 3.18 µM | TGI (MCF7 breast): 23.5 µM | GI50 (M14 melanoma): 4.51 µM | TGI (M14 melanoma): 21.6 µM | GI50 (LOX IMVI melanoma): 2.46 µM | TGI (LOX IMVI melanoma): 6.77 µM | GI50 (MALME-3M melanoma): 3.99 µM | TGI (MALME-3M melanoma): 16.6 µM | GI50 (TK-10 renal): 6.11 µM | TGI (TK-10 renal): 89.8 µM | GI50 (KM12 colon): 2.77 µM | TGI (KM12 colon): 11.6 µM | GI50 (SR leukemia): 4.04 µM | TGI (SR leukemia): 52.4 µM | GI50 (HL-60(TB) leukemia): 2.55 µM | TGI (HL-60(TB) leukemia): 6.84 µM | GI50 (NCI-H226 lung): 3.42 µM | TGI (NCI-H226 lung): 19.5 µM
